Legend:
Type in all cases: in vivo
cecal microbiota = cecal microbiota 16S sequencing, alcohol exposure and EA pretreatment in mice
Method: All animal testing procedures were performed in accordance with Andong National University's small animal testing guidelines, and were approved by the Andong National University Animal Care and Use Committee. All mice were housed where food and water were provided autonomously, and lighting was controlled (12-hour light/dark cycle). The ellagic acid was orally administered to 6-week-old female C57BL/6J mice at a daily dose of 60 mg/Kg as a physiologically and clinically relevant dose, and 200 mg/Kg silymarin was administered as a positive control. Water was orally administered to control mice. After the administration of ellagic acid for 14 days, alcohol or dextrose (control) was orally administered to some of the mice at a dose of 5 g/Kg, three times at 12-hour intervals. The mice were […] 1 hour after the last administration. Fecal samples were aseptically collected from the cecum of each mouse and frozen at -80° C. DNA was extracted using the Mag-Bind Universal Pathogen DNA Kit (Chunlab, Seoul, South Korea) according to the manufacturer's instructions. DNA sequencing of bacterial 16S rRNA in each fecal sample was performed at Chunlab (https://www.chunlab.com/). Intestinal microbiome and bacterial products have been associated with liver diseases (ALD). To evaluate the effect of ellagic acid (EA) on the intestinal microbial distribution in an alcoholic liver disease model, the cecal microbiota according to alcohol exposure and EA pretreatment in mice was evaluated according to the experimental design of FIG. 1. […] However, in the case of the alcohol exposure group, Verrucomicrobia phylum increased whereas Firmicutes phylum decreased.

ZO-1 and β-catenin = test: intestinal tight junction (TJ) and anchoring junction (AJ) protein expression in alcohol-exposed mice; settings: EA-pretreated group within the alcohol-exposed group; FIG. 10
Method: All animal testing procedures were performed in accordance with Andong National University's small animal testing guidelines, and were approved by the Andong National University Animal Care and Use Committee. All mice were housed where food and water were provided autonomously, and lighting was controlled (12-hour light/dark cycle). The ellagic acid was orally administered to 6-week-old female C57BL/6J mice at a daily dose of 60 mg/Kg as a physiologically and clinically relevant dose, and 200 mg/Kg silymarin was administered as a positive control. Water was orally administered to control mice. […]
Portions of liver tissue and small intestine from each mouse were homogenized with RIPA buffer. […] Relative protein images were determined using the HRP-binding secondary antibody and an ECL substrate (Thermo Fishers). The intensity of immune response bands was quantified by density using ImageJ software (National Institutes of Health).
(§1) Changes in the expression of intestinal tight junction (TJ) and anchoring junction (AJ) proteins are observed in mouse models with alcohol-induced intestinal leak. To evaluate whether ellagic acid (EA) prevents alcohol-induced intestinal leakage, the expression levels of intestinal TJ and AJ proteins after the ellagic acid administration were measured.

[1] = system: CYP2E1, iNOS and 3-NT proteins in the liver; test: hepatic CYP2E1 expression and activity and oxidative stress marker proteins in alcohol-exposed mice
Method: CYP2E1 Activity Analysis Liver solutions were each analyzed with an ELISA kit for CYP2E1, manufactured by Claud-clone corporation (Houston, Tex.), according to the manufacturer's instructions.
Portions of liver tissue and small intestine from each mouse were homogenized with RIPA buffer. Equally pooled protein in an amount of 50 ug collected from different mouse samples within the same group were separated by SDS/PAGE and transferred to nitrocellulose membranes. These membranes were incubated with polyclonal antibodies against CYP2E1 (1:5,000 dilution; Abcam), p-JNK (1:1,000 dilution; Cell Signaling), 3-NT (1:5,000 dilution; Abcam), iNOS (1:5,000 dilution; Abcam), cleaved caspase-3 (1:1,000 dilution; Cell Signaling), ZO-1 (1:5,000 dilution; Abcam), and claudin-1 (1:1,000 dilution; Thermo Fisher). Each mouse monoclonal antibody against JNK (1:1,000 dilution; Cell Signaling), Bax (1:1,000 dilution; Santa Cruz Biotechnology), or +-actin (1:10,000 dilution; Santa Cruz Biotechnology) was used to detect specific antigenic targets. After washing the nitrocellulose membranes three times with PBS at 10-minute intervals, horseradish peroxidase (HRP)-conjugated anti-rabbit or anti-mouse IgG (manufactured by Santa Cruz Biotechnology) was diluted at a ratio of 1:5,000 and used as a secondary antibody. Relative protein images were determined using the HRP-binding secondary antibody and an ECL substrate (Thermo Fishers). The intensity of immune response bands was quantified by density using ImageJ software (National Institutes of Health).
To evaluate the effect of ellagic acid (EA) on hepatic oxidative stress, the expression and activity levels of CYP2E1 proteins were measured.

[2] = blood alcohol concentration (BAC) in alcohol-exposed mice; settings: EA-pretreated group; FIG. 16
Method: (§2) All animal testing procedures were performed in accordance with Andong National University's small animal testing guidelines, and were approved by the Andong National University Animal Care and Use Committee. All mice were housed where food and water were provided autonomously, and lighting was controlled (12-hour light/dark cycle). The ellagic acid was orally administered to 6-week-old female C57BL/6J mice at a daily dose of 60 mg/Kg as a physiologically and clinically relevant dose, and 200 mg/Kg silymarin was administered as a positive control. Water was orally administered to control mice. After the administration of ellagic acid for 14 days, alcohol or dextrose (control) was orally administered to some of the mice at a dose of 5 g/Kg, three times at 12-hour intervals. The mice were sacrificied 1 hour after the last administration.
(§3) Levels of plasma ROS were visualized with 2′,7′-dichlorofluorescein diacetate (DCFH-DA) purchased from Thermo Fisher Scientific. After the DCFH-DA was incubated at 37° C. for 20 minutes, DCFH-DA fluorescence was measured. Plasma alcohol levels were measured using a commercially available kit manufactured by BioVision.
(§4) To evaluate the effect of ellagic acid (EA) on hepatic fat accumulation, and plasma ALT and hepatic triglyceride levels, liver tissues taken from mouse models were histologically analyzed through H/E staining and Oil Red O staining.

TNF-α = test: intestinal TNF-α level (ELISA) in alcohol-exposed mice; settings: EA pretreatment vs alcohol-exposed group; EA 60 mg/Kg daily oral 14 days; FIG. 8
Method: as §2
Liver solutions were analyzed using an ELISA kit for TNF-α, manufactured by Abcam (Cambridge, United Kingdom), according to the manufacturer's instructions. To use equal amounts of protein for the ELISA, protein concentration was measured with BCA reagent manufactured by BioRad (Hercules, Calif.). […]
(§5) Intestinal microbial products can be stimulated by intestinal leak and endotoxins. Plasma endotoxin and intestinal TNF-α levels were measured to determine whether ellagic acid (EA)-mediated prophylaxis occurred at altered levels of microbial composition.

[3] = system: CYP2E1, iNOS, and 3-NT proteins in the intestine; test: intestinal oxidative stress marker proteins (immunoblot) in alcohol-exposed mice; settings: EA-pretreated group vs alcohol-exposed group; FIG. 9
Method: Portions of liver tissue and small intestine from each mouse were homogenized with RIPA buffer. Equally pooled protein in an amount of 50 ug collected from different mouse samples within the same group were separated by SDS/PAGE and transferred to nitrocellulose membranes. These membranes were incubated with polyclonal antibodies against CYP2E1 (1:5,000 dilution; Abcam), p-JNK (1:1,000 dilution; Cell Signaling), 3-NT (1:5,000 dilution; Abcam), iNOS (1:5,000 dilution; Abcam), cleaved caspase-3 (1:1,000 dilution; Cell Signaling), ZO-1 (1:5,000 dilution; Abcam), and claudin-1 (1:1,000 dilution; Thermo Fisher). Each mouse monoclonal antibody against JNK (1:1,000 dilution; Cell Signaling), Bax (1:1,000 dilution; Santa Cruz Biotechnology), or +-actin (1:10,000 dilution; Santa Cruz Biotechnology) was used to detect specific antigenic targets. […] Relative protein images were determined using the HRP-binding secondary antibody and an ECL substrate (Thermo Fishers). The intensity of immune response bands was quantified by density using ImageJ software (National Institutes of Health).
To evaluate the effect of ellagic acid on intestinal oxidative stress, the expression levels of CYP2E1, iNOS, and 3-NT proteins were measured.

intestinal cells = test: apoptosis of intestinal cells in alcohol-exposed mice; settings: EA pretreatment group, alcohol-induced; FIG. 11
Method: as §2
Small intestine and liver specimens were fixed overnight in 10% buffered formalin and embedded in paraffin. […]
as §1

[4] = system: hepatic triglyceride (TG); test: hepatic triglyceride (TG) level in alcohol-exposed mice; settings: EA-pretreated group vs alcohol-exposed group; FIG. 14
Method: as §2
The level of triglyceride (TG) in the liver was measured using a commercially available kit manufactured by Asan Co., Ltd. (Gimpo, South Korea).
as §4

plasma ALT = plasma ALT level in alcohol-exposed mice; settings: EA-pretreated group vs alcohol-exposed group; FIG. 15
Method: as §2
(§6) Portions of the largest liver lobes or small intestines from the mice pretreated with ellagic acid and from the controls were fixed in neutral formalin. […] Plasma ALT levels of each mouse were measured using a standard endpoint colorimetric assay kit (Bio Vision, Milpitas, Calif.).
as §4

plasma ROS = plasma ROS level (DCFH-DA) in alcohol-exposed mice; settings: FIG. 18
Method: as §2, §3
CYP2E1 generates reactive oxygen species (ROS) in alcoholic and nonalcoholic liver disease.

[5] = system: p-JNK, Bax, cleaved caspase-3 in the liver; test: liver apoptosis markers (Western blot, cleaved caspase-3 staining, TUNEL) in alcohol-exposed mice
Method: as §2
Portions of liver tissue and small intestine from each mouse were homogenized with RIPA buffer. Equally pooled protein in an amount of 50 ug collected from different mouse samples within the same group were separated by SDS/PAGE and transferred to nitrocellulose membranes. These membranes were incubated with polyclonal antibodies against CYP2E1 (1:5,000 dilution; Abcam), p-JNK (1:1,000 dilution; Cell Signaling), 3-NT (1:5,000 dilution; Abcam), iNOS (1:5,000 dilution; Abcam), cleaved caspase-3 (1:1,000 dilution; Cell Signaling), ZO-1 (1:5,000 dilution; Abcam), and claudin-1 (1:1,000 dilution; Thermo Fisher). Each mouse monoclonal antibody against JNK (1:1,000 dilution; Cell Signaling), Bax (1:1,000 dilution; Santa Cruz Biotechnology), or […] (1:10,000 dilution; Santa Cruz Biotechnology) was used to detect specific antigenic targets. […] Relative protein images were determined using the HRP-binding secondary antibody and an ECL substrate (Thermo Fishers). The intensity of immune response bands was quantified by density using ImageJ software (National Institutes of Health). […]

[6] = system: fat accumulation in the liver; test: liver histology (H/E and Oil Red O staining) in alcohol-exposed mice; settings: EA-pretreated group vs alcohol-exposed group, FIGS. 12 and 13
Method: as §2, §6, §4

plasma endotoxin = plasma endotoxin level (LAL chromogenic kit) in alcohol-exposed mice; settings: EA-pretreated group vs alcohol-exposed group; EA 60 mg/Kg daily oral 14 days; FIG. 7
Method: as §2
Plasma endotoxin levels were measured using a commercial endpoint LAL Chromogenic Endotoxin Quantitation Kit manufactured by Thermo Fisher Scientific (Waltham, Mass.) and having a concentration range of 0.015 to 1.2 EU/mL.
as §5

[7] = summary statement, alcohol intake
[8] = EA-pretreated group vs alcohol-exposed group, FIGS. 17 and 19
[9] = EA-pretreated group vs alcohol-exposed mice, FIG. 19
[10] = EA-pretreated group vs alcohol-exposed group, Western blot, FIG. 20

Compound: O=c1oc2c(O)c(O)cc3c(=O)oc4c(O)c(O)cc1c4c23 [ellagic acid]
- gene of the genus Bacteroides (cecal microbiota; EA-pretreated mice vs alcohol-exposed group, EA 60 mg/Kg daily oral 14 days, alcohol 5 g/Kg three times, FIG. 4): decreased
- gene level of E. coli (cecal microbiota; EA-pretreated mice vs alcohol-exposed group, EA 60 mg/Kg daily oral 14 days, alcohol 5 g/Kg three times, FIG. 5): decreased to a level similar to that of the control group
- change in intestinal microbial distribution at the phylum level (cecal microbiota; control group and EA pretreatment group, EA 60 mg/Kg daily oral 14 days, female C57BL/6J mice, FIGS. 2 and 3): no significant change
- growth of Bacteroidetes (harmful bacteria) attributable to alcohol intake (cecal microbiota; [7]): inhibits the growth
- growth of Firmicutes (beneficial bacteria) (cecal microbiota; [7]): increases the growth
- growth of Verrucomicrobia (harmful bacteria) attributable to alcohol intake (cecal microbiota; [7]): inhibits the growth
- level of intestinal ZO-1 (ZO-1 and β-catenin): recovery
- level of intestinal β-catenin (ZO-1 and β-catenin): recovery
- activity level of CYP2E1 proteins in the liver [1, 8]: decreased
- expression level of CYP2E1 proteins in the liver [1, 8]: decreased
- hepatic 3-NT proteins [1, 9]: decreased
- hepatic inducible nitric oxide synthase (iNOS) protein [1, 9]: decreased
- increase in blood alcohol concentration (BAC) caused by alcohol intake [2]: suppressed
- alcohol-induced increase in intestinal TNF-α level (TNF-α): suppressed
- level of 3-NT proteins in the intestine [3]: decreased
- level of CYP2E1 protein in the intestine [3]: decreased
- level of iNOS protein in the intestine [3]: decreased
- apoptosis of intestinal cells (intestinal cells): decrease
- hepatic triglyceride (TG) level [4]: decreased
- plasma ALT level (plasma ALT): decreased
- increase in the level of plasma ROS attributable to alcohol intake (plasma ROS): suppressed
- Bax (apoptosis marker protein) in the liver [5, 10]: decreased
- p-JNK (apoptosis marker protein) in the liver [5, 10]: decreased
- apoptosis marker proteins by cleaved caspase-3 staining and TUNEL analysis in the liver ([5]; EA-pretreated group vs mice exposed to alcohol, FIGS. 21 and 22): decreased
- fat accumulation in the liver [6]: decreased
- alcohol-induced increase in plasma endotoxin concentration (plasma endotoxin): suppressed

— patent US20220257559A1, “INTESTINAL MICROBIOME-IMPROVING COMPOSITION INCLUDING ELLAGIC ACID AS ACTIVE INGREDIENT” (Andong National University Industry-Academic Cooperation …, priority 2021, published 2022)
